Earlier results in patent US9322040B2, “Pseudonocardia sp. and method for preparing deoxynyboquinone by utilizing same” (SOUTH CHINA SEA INSTITUTE OF OCEANOLOGY, CHINESE ACADEMY OF …, priority 2011, dated 2016).

Tested on: cancer cell

Row | Compound | activity relative to Deoxynyboquinone (compared with the activity of Deoxynyboquinone) | cytotoxin activity | activity under anoxic conditions (anoxic conditions)
1 | Cc1cc(=O)n(C)c2c1C(=O)c1c(C)cc(=O)n(C)c1C2=O [SCH 538415, reference compound] | 10 times weaker |  | 
2 | Cc1cc(=O)[nH]c2c1C(=O)c1c(C)cc(=O)n(C)c1C2=O [Deoxynyboquinone] |  | significant cytotoxin activity | stronger activity can be still shown under anoxic conditions
